Our source for the IC50 values is patent publication US20130150377A1, “Tetrahydropyridinyl and Dihydropyrrolyl Compounds and the Use Thereof” (SHIONOGI & CO., LTD., priority 2008, published 2013).

pIC50: −log10 of the molar value. Some results are limits rather than exact numbers.

For the assay, the target named is T1, N-type calcium channel (NTCC) (Homo sapiens, UniProt Q00975).
T1 construct: endogenous in cells; host or cells: differentiated IMR32 cells (ATCC)
T1 sequence (Q00975 whole entry): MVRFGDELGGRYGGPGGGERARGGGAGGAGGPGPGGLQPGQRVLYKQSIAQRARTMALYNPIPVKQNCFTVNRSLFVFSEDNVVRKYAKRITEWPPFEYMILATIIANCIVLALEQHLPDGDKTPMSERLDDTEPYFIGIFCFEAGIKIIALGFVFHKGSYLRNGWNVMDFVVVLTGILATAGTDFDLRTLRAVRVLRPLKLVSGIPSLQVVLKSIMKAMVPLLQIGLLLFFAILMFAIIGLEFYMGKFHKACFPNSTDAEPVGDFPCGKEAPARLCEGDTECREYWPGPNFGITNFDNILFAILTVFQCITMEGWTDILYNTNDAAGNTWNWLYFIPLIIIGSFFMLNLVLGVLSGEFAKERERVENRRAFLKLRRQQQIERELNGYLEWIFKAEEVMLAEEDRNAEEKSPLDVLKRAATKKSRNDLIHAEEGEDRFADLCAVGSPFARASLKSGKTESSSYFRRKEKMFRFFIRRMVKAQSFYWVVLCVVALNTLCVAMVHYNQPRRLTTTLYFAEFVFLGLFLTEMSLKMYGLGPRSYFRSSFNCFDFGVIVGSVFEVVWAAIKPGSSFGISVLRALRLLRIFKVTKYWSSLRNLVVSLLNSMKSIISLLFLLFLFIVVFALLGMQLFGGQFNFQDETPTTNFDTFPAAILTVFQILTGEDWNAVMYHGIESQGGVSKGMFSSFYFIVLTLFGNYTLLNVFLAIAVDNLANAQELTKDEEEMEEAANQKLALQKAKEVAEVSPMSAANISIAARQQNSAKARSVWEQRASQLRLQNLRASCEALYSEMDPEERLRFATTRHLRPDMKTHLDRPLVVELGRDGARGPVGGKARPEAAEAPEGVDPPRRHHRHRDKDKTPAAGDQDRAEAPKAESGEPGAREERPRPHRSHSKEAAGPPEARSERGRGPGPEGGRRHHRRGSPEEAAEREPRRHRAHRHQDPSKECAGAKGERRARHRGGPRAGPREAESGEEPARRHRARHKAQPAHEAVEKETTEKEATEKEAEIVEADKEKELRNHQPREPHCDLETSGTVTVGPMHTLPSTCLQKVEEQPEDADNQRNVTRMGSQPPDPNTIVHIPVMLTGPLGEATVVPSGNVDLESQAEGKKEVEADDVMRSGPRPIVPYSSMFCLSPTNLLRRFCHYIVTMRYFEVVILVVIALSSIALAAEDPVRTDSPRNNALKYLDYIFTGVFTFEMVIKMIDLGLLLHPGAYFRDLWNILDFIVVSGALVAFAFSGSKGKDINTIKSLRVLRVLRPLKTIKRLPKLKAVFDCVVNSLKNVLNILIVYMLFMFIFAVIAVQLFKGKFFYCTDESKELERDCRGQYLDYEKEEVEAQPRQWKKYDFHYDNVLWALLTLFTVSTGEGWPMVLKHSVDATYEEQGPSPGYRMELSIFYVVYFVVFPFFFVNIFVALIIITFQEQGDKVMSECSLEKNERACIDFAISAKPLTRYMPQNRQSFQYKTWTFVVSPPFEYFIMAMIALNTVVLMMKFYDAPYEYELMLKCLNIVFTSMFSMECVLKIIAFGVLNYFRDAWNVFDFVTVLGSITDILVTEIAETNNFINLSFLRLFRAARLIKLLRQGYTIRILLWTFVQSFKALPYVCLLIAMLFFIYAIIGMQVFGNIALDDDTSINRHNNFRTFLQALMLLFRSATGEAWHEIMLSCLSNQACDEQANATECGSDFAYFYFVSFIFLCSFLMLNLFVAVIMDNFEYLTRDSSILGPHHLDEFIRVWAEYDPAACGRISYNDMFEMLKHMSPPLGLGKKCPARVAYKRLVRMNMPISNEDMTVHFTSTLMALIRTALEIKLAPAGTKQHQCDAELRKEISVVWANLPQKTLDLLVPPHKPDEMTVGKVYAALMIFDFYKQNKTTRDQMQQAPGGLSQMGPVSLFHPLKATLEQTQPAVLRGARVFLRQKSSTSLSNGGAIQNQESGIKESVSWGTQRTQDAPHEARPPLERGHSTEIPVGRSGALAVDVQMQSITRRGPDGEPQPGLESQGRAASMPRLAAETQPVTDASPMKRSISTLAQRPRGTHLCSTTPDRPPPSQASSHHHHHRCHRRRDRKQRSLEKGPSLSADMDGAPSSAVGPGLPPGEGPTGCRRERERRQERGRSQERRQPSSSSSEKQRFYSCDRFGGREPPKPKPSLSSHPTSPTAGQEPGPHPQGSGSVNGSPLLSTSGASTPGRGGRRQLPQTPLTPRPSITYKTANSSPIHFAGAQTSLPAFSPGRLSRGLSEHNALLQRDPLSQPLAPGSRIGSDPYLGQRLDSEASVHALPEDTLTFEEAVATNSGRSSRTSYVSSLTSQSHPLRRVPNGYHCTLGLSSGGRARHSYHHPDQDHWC
T1 sequence (P54289 25-956 partner limits assumed): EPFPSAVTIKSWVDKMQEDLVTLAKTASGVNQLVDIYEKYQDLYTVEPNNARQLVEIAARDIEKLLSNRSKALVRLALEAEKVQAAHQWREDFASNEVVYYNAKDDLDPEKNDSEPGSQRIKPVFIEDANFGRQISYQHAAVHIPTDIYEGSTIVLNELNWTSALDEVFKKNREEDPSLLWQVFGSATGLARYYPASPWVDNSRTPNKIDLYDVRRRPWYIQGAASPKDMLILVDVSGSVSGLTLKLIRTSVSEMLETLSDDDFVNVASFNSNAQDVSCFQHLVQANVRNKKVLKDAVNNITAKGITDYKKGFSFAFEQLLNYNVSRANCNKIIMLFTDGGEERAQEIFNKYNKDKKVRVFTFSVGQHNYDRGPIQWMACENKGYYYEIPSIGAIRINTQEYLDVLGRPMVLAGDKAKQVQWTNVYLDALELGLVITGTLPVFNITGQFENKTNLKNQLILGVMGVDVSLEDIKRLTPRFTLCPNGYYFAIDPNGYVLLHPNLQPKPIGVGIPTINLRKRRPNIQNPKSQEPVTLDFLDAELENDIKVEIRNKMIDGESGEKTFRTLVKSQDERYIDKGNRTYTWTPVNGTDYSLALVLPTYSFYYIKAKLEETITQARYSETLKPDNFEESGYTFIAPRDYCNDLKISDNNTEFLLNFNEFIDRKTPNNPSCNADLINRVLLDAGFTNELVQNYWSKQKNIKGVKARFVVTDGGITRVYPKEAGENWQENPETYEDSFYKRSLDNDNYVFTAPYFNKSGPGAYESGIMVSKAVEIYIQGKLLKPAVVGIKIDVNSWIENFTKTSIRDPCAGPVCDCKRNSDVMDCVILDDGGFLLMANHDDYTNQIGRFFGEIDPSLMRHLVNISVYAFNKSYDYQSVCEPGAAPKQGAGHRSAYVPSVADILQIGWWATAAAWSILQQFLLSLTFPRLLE
T1 sequence (P54289 957-1103 partner limits assumed): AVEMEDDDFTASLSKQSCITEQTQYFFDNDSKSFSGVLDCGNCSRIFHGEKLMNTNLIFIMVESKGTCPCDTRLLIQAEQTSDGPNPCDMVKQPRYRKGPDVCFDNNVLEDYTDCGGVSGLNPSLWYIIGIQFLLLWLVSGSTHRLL
T1 sequence (P54284 whole entry partner): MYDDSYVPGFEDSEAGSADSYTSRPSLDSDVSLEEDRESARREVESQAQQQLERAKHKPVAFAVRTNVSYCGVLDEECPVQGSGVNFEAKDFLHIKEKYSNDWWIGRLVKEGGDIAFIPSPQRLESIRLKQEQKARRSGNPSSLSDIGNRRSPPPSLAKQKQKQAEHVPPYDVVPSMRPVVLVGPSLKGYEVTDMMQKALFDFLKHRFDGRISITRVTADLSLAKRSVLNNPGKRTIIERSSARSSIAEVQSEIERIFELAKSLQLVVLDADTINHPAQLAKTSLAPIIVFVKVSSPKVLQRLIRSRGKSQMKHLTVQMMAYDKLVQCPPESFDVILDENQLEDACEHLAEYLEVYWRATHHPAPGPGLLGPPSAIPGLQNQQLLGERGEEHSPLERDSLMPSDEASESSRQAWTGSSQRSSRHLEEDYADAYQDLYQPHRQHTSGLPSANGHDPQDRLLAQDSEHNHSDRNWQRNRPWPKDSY
The experiment in a line: FLIPR calcium mobilization assay for N-type calcium channel (differentiated IMR32 cells). Format: cell-based. The note with it: N-type calcium channel blockers, calcium mobilization in vitro assay. As for the experimental part:
Cell maintenance and differentiation. Unless noted otherwise, cell culture reagents were purchased from Mediatech of Herndon, Md. IMR32 cells (American Type Culture Collection, ATCC, Manassas, Va.) were routinely cultured in growth medium consisting of minimum essential medium containing 10% fetal bovine serum (FBS, Hyclone, Logan, Utah), 100 U/mL penicillin, 100 μg/mL streptomycin, 2 mM L-glutamine, 1 mM sodium pyruvate, and 1×MEM non-essential amino acids. 80-90% confluent flasks of cells were differentiated using the following differentiation medium: Growth medium plus 1 mM dibutyryl cyclic AMP (Sigma, St. Louis, Mo.), and 2.5 μM bromodeoxyuridine (Sigma). Cells were differentiated for 8 days by replacing differentiation medium every 2-3 days.
FLIPR Calcium Mobilization Assay for N-type Calcium Channel.
One day prior to performing this assay, differentiated IMR32 cells were treated with 1× CellStripper, and seeded on poly-D-lysine-coated 96-well clear-bottom black plates (Becton Dickinson, Franklin Lakes, N.J.) at 200,000 cells/well. On the day of the assay, the cell plates were washed with IMR32 buffer (127 mM NaCl, 1 mM KCl, 2 mM MgCl2, 700 μM NaH2PO4, 5 mM CaCl2, 5 mM NaHCO3, 8 mM HEPES, 10 mM glucose, pH 7.4), then pre-stimulated with KCl and loaded as follows: […] of IMR32 buffer, 0.05 mL of each compound tested diluted in IMR32 buffer containing 20 μM nitrendipine (Sigma), and 0.1 mL KCl dissolved in IMR32 buffer, plus Fluo-4 were added (3 μM final concentration, Molecular Probes, Eugene, Oreg.). Final test compound concentrations ranged from about 846 pM to about 17 μM, final nitrendipine concentration was 5 μM, and final KCl concentration was 90 mM. After 1 hour, the cells were washed twice with 0.05 mL of each compound tested in nitrendipine-containing IMR32 buffer (no KCl or Fluo-4), and then replaced with 0.1 mL of each compound tested in nitrendipine-containing IMR32 buffer. Plates were then transferred to a Fluorimetric Imaging Plate Reader (FLIPR^96, Molecular Devices, Inc., Sunnyvale, Calif.) for assay. The FLIPR measured basal Fluo-4 fluorescence for 315 seconds (i.e., 5 minutes and 15 seconds), then added 0.1 mL KCl agonist dissolved in IMR32 buffer and measured fluorescence for another 45 seconds. Final test compound concentrations on the cells after FLIPR read ranged from about 846 pM to about 17 μM, final nitrendipine concentration was 5 μM, and final KCl concentration was 90 mM. Data were collected over the entire time course and analyzed using Excel, Graph Pad Prism (version 3.02, Graph Pad, San Diego, Calif.), or an in-house non-linear regression analysis software.
(Calcium flux is commonly read through the fluorescence of an indicator in the cells.)
Usually pIC50 stands for the IC50 on a negative log10 scale, so that one unit is a factor of ten. `O=C(NC1CC1)c1cccc(C2=CCN(S(=O)(=O)c3c(F)cc(F)cc3F)CC2)n1` [1′-(2,4,6-Trifluorobenzenesulfonyl)-1′,2′,3′,6′-tetrahydro-[2,4′]bipyridinyl-6-carboxylic acid cyclopropylamide]: the negative-log IC50 (pIC50) is 6.00. The value for `O=C(NC1CC1)c1cccc(C2=CCN(S(=O)(=O)c3ccc(Cl)cc3Cl)CC2)n1` [1′-(2,4-Dichlorobenzenesulfonyl)-1′,2′,3′,6′-tetrahydro-[2,4′]bipyridinyl-6-carboxylic acid cyclopropylamide] was 6.72; that for `CC(C)CS(=O)(=O)N1CC=C(c2cccc(C(=O)NC3CC3)n2)CC1` [1′-(2-Methylprop-1-ylsulfonyl)-1′,2′,3′,6′-tetrahydro-[2,4′]bipyridinyl-6-carboxylic acid cyclopropylamide] was 5.84; that for `O=C(NC1CC1)c1cccc(C2=CCN(S(=O)(=O)c3ccccc3C(F)(F)F)CC2)n1` [1′-(2-Trifluoromethylbenzenesulfonyl)-1′,2′,3′,6′-tetrahydro-[2,4′]bipyridinyl-6-carboxylic acid cyclopropylamide] was 7.10.

As to `O=C(NC1CC1)c1cccc(C2=CCN(S(=O)(=O)CCC(F)(F)F)CC2)n1` [1′-(3,3,3-Trifluoropropylsulfonyl)-1′,2′,3′,6′-tetrahydro-[2,4′]bipyridinyl-6-carboxylic acid cyclopropylamide], the negative logarithm of the IC50 (pIC50) was 5.51. The value for `O=C(NC1CC1)c1cccc(C2=CCN(S(=O)(=O)c3cc(Cl)cc(Cl)c3)CC2)n1` [1′-(3,5-Dichlorobenzenesulfonyl)-1′,2′,3′,6′-tetrahydro-[2,4′]bipyridinyl-6-carboxylic acid cyclopropylamide] was 7.30; that for `O=C(NC1CC1)c1cccc(C2=CCN(S(=O)(=O)c3cccc(Cl)c3)CC2)n1` [1′-(3-Chlorobenzenesulfonyl)-1′,2′,3′,6′-tetrahydro-[2,4′]bipyridinyl-6-carboxylic acid cyclopropylamide] was 7.10; that for `N#Cc1cc(S(=O)(=O)N2CC=C(c3cccc(C(=O)NC4CC4)n3)CC2)ccc1F` [1′-(3-Cyano-4-fluorobenzenesulfonyl)-1′,2′,3′,6′-tetrahydro-[2,4′]bipyridinyl-6-carboxylic acid cyclopropylamide] was 6.11. The value for `N#Cc1cccc(S(=O)(=O)N2CC=C(c3cccc(C(=O)NC4CC4)n3)CC2)c1` [1′-(3-Cyanobenzenesulfonyl)-1′,2′,3′,6′-tetrahydro-[2,4′]bipyridinyl-6-carboxylic acid cyclopropylamide] was 7.30; that for `O=C(NC1CC1)c1cccc(C2=CCN(S(=O)(=O)c3cccc(OC(F)(F)F)c3)CC2)n1` [1′-(3-Trifluoromethoxybenzenesulfonyl)-1′,2′,3′,6′-tetrahydro-[2,4′]bipyridinyl-6-carboxylic acid cyclopropylamide] was 7.40; that for `O=S(=O)(c1cccc(C(F)(F)F)c1)N1CC=C(c2cccc(CO)n2)CC1` [1′-(3-Trifluoromethylbenzenesulfonyl)-1′,2′,3′,6′--tetrahydro-[2,4′]bipyridinyl-6-yl]methanol] was 5.37. Then `O=C(NCC(F)(F)F)c1cccc(C2=CCN(S(=O)(=O)c3cccc(C(F)(F)F)c3)CC2)n1` [1′-(3-Trifluoromethylbenzenesulfonyl)-1′,2′,3′,6′-tetrahydro-[2,4′]-bipyridinyl-6-carboxylic acid 2,2,2-trifluoroethylamide], with 7.52; and `O=C(NCCC(F)(F)F)c1cccc(C2=CCN(S(=O)(=O)c3cccc(C(F)(F)F)c3)CC2)n1` [1′-(3-Trifluoromethylbenzenesulfonyl)-1′,2′,3′,6′-tetrahydro-[2,4′]-bipyridinyl-6-carboxylic acid 3,3,3-trifluoropropylamide], with 7.30; and `O=C(NC(CO)CO)c1cccc(C2=CCN(S(=O)(=O)c3cccc(C(F)(F)F)c3)CC2)n1` [1′-(3-Trifluoromethylbenzenesulfonyl)-1′,2′,3′,6′-tetrahydro-[2,4′]bipyridinyl-6-carboxylic acid 1,3-dihydroxyprop-2-ylamide], with 7.05. For `O=C(NCCO)c1cccc(C2=CCN(S(=O)(=O)c3cccc(C(F)(F)F)c3)CC2)n1` [1′-(3-Trifluoromethylbenzenesulfonyl)-1′,2′,3′,6′-tetrahydro-[2,4′]bipyridinyl-6-carboxylic acid 2-hydroxyethylamide], the negative logarithm of the IC50 (pIC50) was 7.15. Then `O=C(NCC(F)(F)F)c1ncccc1C1=CCN(S(=O)(=O)c2cccc(C(F)(F)F)c2)CC1` [1′-(3-Trifluoromethylbenzenesulfonyl)-1′,2′,3′,6′-tetrahydro-[3,4′]bipyridinyl-2-carboxylic acid 2,2,2-trifluoroethylamide], with 6.18. Then `O=C(NCCC(F)(F)F)c1ncccc1C1=CCN(S(=O)(=O)c2cccc(C(F)(F)F)c2)CC1` [1′-(3-Trifluoromethylbenzenesulfonyl)-1′,2′,3′,6′-tetrahydro-[3,4′]bipyridinyl-2-carboxylic acid 3,3,3-trifluoropropylamide], with 6.38. Take `O=C(NCC1CC1)c1ncccc1C1=CCN(S(=O)(=O)c2cccc(C(F)(F)F)c2)CC1` [1′-(3-Trifluoromethylbenzenesulfonyl)-1′,2′,3′,6′-tetrahydro-[3,4′]bipyridinyl-2-carboxylic acid cyclopropylmethylamide]: the pIC50 is 6.85. Regarding `COC(=O)c1ncccc1C1=CCN(S(=O)(=O)c2cccc(C(F)(F)F)c2)CC1` [1′-(3-Trifluoromethylbenzenesulfonyl)-1′,2′,3′,6′-tetrahydro-[3,4′]bipyridinyl-2-carboxylic acid methyl ester], the negative logarithm of the IC50 (pIC50) was < 4.70.

Turning to `O=C(NC1CC1)c1cccc(C2=CCN(S(=O)(=O)Cc3cccc(C(F)(F)F)c3)CC2)n1` [1′-(3-Trifluoromethylbenzylsulfonyl)-1′,2′,3′,6′-tetrahydro-[2,4′]bipyridinyl-6-carboxylic acid cyclopropylamide], the negative logarithm of the IC50 (pIC50) is 6.17. In the case of `O=C(NC1CC1)c1cccc(C2=CCN(S(=O)(=O)c3ccc(F)cc3)CC2)n1` [1′-(4-Fluorobenzenesulfonyl)-1′,2′,3′,6′-tetrahydro-[2,4′]bipyridinyl-6-carboxylic acid cyclopropylamide], the negative-log IC50 (pIC50) is 6.46.

For `O=C(NCC(F)(F)F)c1cccc(C2=CCN(S(=O)(=O)c3ccc(OC(F)(F)F)cc3)CC2)n1` [1′-(4-Trifluoromethoxybenzenesulfonyl)-1′,2′,3′,6′-tetrahydro-[2,4′]-bipyridinyl-6-carboxylic acid 2,2,2-trifluoroethylamide], the negative logarithm of the IC50 (pIC50) is 6.37. `O=C(NCCC(F)(F)F)c1cccc(C2=CCN(S(=O)(=O)c3ccc(OC(F)(F)F)cc3)CC2)n1` [1′-(4-Trifluoromethoxybenzenesulfonyl)-1′,2′,3′,6′-tetrahydro-[2,4′]-bipyridinyl-6-carboxylic acid 3,3,3-trifluoropropylamide]: the pIC50 is 6.60. The value for `O=C(Nc1ccc(F)cc1)c1cccc(C2=CCN(S(=O)(=O)c3ccc(OC(F)(F)F)cc3)CC2)n1` [1′-(4-Trifluoromethoxybenzenesulfonyl)-1′,2′,3′,6′-tetrahydro-[2,4′]-bipyridinyl-6-carboxylic acid 4-fluorophenylamide] was 5.72.

`O=C(NC1CC1)c1cccc(C2=CCN(S(=O)(=O)c3ccc(OC(F)(F)F)cc3)CC2)n1` [1′-(4-Trifluoromethoxybenzenesulfonyl)-1′,2′,3′,6′-tetrahydro-[2,4′]bipyridinyl-6-carboxylic acid cyclopropylamide]: the pIC50 was 6.54. In the case of `O=C(NCC(F)(F)F)c1ncccc1C1=CCN(S(=O)(=O)c2ccc(OC(F)(F)F)cc2)CC1` [1′-(4-Trifluoromethoxybenzenesulfonyl)-1′,2′,3′,6′-tetrahydro-[3,4′]bipyridinyl-2-carboxylic acid 2,2,2-trifluoroethylamide], the pIC50 was 6.02. Then `O=C(NCCC(F)(F)F)c1ncccc1C1=CCN(S(=O)(=O)c2ccc(OC(F)(F)F)cc2)CC1` [1′-(4-Trifluoromethoxybenzenesulfonyl)-1′,2′,3′,6′-tetrahydro-[3,4′]bipyridinyl-2-carboxylic acid 3,3,3-trifluoropropylamide], with 6.03.
